Values of other authors, collected in patent publication US20200323830A1, “TREATMENT OF VIRAL HEMORRHAGIC FEVERS WITH ETORICOXIB” (priority 2019, published 2020).
Like-named read-outs stand apart in the source and are kept apart here.

What was measured:
[1] = target: T1, COX-1 activity in circulating platelets (Homo sapiens, UniProt P23219); conditions: therapeutic doses, healthy subjects
T1 construct: COX-1 activity in circulating platelets; endogenous in cells; host or cells: circulating platelets of healthy subjects
T1 sequence (P23219 24-599): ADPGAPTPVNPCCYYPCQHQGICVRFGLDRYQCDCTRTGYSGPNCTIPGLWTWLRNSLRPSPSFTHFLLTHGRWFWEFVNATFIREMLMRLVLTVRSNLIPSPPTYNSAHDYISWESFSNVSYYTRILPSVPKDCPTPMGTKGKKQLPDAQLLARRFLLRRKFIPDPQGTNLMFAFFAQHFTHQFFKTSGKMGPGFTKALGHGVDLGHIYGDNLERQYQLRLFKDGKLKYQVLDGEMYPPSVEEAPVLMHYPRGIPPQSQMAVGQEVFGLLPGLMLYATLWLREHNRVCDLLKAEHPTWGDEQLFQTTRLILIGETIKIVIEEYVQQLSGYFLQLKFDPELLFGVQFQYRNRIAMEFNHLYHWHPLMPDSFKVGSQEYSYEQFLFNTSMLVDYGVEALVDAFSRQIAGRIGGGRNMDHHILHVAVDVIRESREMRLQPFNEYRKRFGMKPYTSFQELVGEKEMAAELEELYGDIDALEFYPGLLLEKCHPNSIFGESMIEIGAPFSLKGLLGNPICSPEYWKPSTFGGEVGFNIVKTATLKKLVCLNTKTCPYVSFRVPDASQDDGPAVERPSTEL

[2] = system: platelet aggregation or bleeding time
[3] = chronic use for up to one year
[4] = for incidence of joint bleeding: 90 mg, hemophilic arthropathy
[5] = in vivo
[6] = oral, once daily
[7] = versus placebo, acute pain after surgery
[8] = dose of more than 60 mg/kg/day before admission, dengue subjects
[9] = not given; remark: listed apart in the source
[10] = dengue infection
[11] = chronic therapy, 4 grams daily
[12] = intake within 24 h, dengue subjects
[13] = humans; similar to diclofenac and ibuprofen
[14] = monkeys; similar to diclofenac and ibuprofen

Cc1ccc(-c2ncc(Cl)cc2-c2ccc(S(C)(=O)=O)cc2)cn1 [etoricoxib, 5-chloro-2-(6-methylpyridin-3-yl)-3-[4-(trideuteriomethylsulfonyl)phenyl]pyridine]
effect on COX-1 activity in circulating platelets [1]: does not affect COX-1 activity in circulating platelets | effect on platelet aggregation or bleeding time ([2]; doses up to 500 mg): does not affect platelet aggregation or bleeding time | effects on bleeding time or platelet aggregation ([2]; ex vivo whole-blood assays after multiple oral doses): no important effects on bleeding time or platelet aggregation | subjects with elevated ALT or AST (≥3 times the upper limit of normal) [3]: 1% | incidence of joint bleeding ([4]; 6-month extension): 78.9% | incidence of joint bleeding ([4]; 6-week portion): 66.7% | serious AEs ([4]; placebo-controlled portion, two events, both on etoricoxib): 3.9% | median onset of action (acute pain settings): 24 min | risk of bleeding (acute pain studies): not associated with an increased risk of bleeding | duration of sustained efficacy (single dose): 24 h | GI tolerability and safety events [5]: significant improvements | half-life [6]: approximately 22 hours | fever AEs [7]: fewer fever AEs than subjects on placebo | COX-2 versus COX-1 selectivity (COX-2 versus COX-1): 106 fold

CC(=O)Nc1ccc(O)cc1 [acetaminophen/paracetamol]
occurrence of hepatitis [8]: significantly associated with the occurrence of hepatitis | share of all cases of acute liver failure ([9]; academic centers of the Acute Liver Failure Study Group, 2005): 42% | share of all cases of acute liver failure ([9]; population-based, metropolitan Atlanta, 2007): 41% | transaminase elevation ([10]; median daily dose 1.5 g): caused transaminase elevation | pain scores, analgesic intake, length of stay, duration of fever ([10]; versus placebo): not significantly different from placebo | persons with peak serum aminotransferase values ≥3 times the upper normal limit [11]: 39% | transaminase elevation [12]: significantly associated with transaminase elevation

CS(=O)(=O)c1ccc(C2=C(c3ccccc3)C(=O)OC2)cc1 [rofecoxib]
antipyretic activity [13]: antipyretic activity | antipyretic activity [14]: antipyretic activity
